Data published in ChEMBL document CHEMBL3421544, “Design, synthesis and biological evaluation of pyridazino[3,4,5-de]quinazolin-3(2H)-one as a new class of PARP-1 inhibitors” (Bioorg Med Chem Lett, 2015).

Assays:
[1] = system: PC-12; experiment: Neuroprotective activity against H2O2 -mediated injury in rat PC12 cells assessed as cell survival at 0.01 uM relative to control; format: functional; conditions: read-out: Survival
[2] = system: PC-12; experiment: Neuroprotective activity against H2O2 -mediated injury in rat PC12 cells assessed as cell survival at 0.1 uM relative to control; format: functional; conditions: read-out: Survival
[3] = system: PC-12; experiment: Neuroprotective activity against H2O2 -mediated injury in rat PC12 cells assessed as cell survival at 1 uM relative to control; format: functional; conditions: read-out: Survival
[4] = molecular target: Poly [ADP-ribose] polymerase 1 (Homo sapiens) (UniProt P09874); experiment: Inhibition of PARP1 (unknown origin) at 2.8 uM
Sequence of Poly [ADP-ribose] polymerase 1 (Homo sapiens) (P09874 whole entry): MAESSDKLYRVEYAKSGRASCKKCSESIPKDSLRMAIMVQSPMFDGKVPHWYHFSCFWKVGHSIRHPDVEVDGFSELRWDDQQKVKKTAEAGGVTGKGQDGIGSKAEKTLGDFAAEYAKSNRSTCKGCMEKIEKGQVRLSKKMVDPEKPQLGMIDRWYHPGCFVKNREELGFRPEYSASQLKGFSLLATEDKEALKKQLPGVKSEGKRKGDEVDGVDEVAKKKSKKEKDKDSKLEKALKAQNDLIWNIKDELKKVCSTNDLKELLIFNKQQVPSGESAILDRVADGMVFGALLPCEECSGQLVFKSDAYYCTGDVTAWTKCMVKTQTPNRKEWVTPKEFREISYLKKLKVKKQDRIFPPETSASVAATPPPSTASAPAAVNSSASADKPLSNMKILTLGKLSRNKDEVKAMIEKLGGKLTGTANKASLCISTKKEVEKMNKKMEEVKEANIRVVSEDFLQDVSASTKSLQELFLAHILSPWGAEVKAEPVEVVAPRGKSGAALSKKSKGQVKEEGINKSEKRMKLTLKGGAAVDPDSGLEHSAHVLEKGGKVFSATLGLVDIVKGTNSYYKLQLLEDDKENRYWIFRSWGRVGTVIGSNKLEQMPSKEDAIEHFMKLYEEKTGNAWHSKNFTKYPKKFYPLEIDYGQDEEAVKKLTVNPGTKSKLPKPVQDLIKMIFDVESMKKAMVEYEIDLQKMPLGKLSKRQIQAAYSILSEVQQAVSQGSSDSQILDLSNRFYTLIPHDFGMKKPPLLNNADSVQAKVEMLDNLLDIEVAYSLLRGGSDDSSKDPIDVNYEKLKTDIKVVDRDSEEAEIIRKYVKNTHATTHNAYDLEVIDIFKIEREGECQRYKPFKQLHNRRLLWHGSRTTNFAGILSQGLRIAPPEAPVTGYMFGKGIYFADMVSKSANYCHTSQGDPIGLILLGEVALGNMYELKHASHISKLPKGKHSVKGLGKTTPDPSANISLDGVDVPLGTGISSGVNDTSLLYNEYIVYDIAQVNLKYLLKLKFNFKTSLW

Row | inhibition [4] | Structure (SMILES) | viability at 0.01 µM [1] | viability at 0.1 µM [2] | viability at 1 µM [3]
1 | – | Cc1ccc(C2=Nc3cccc4c(=O)[nH]nc(c34)N2)cc1 | 70.9% | 97.2% | 98%
2 | 59.3% | NC(=O)c1ccccc1 | – | – | –
3 | – | COCCOC(=O)C1=C(C)NC(C)=C(C(=O)OC(C)C)C1c1cccc([N+](=O)[O-])c1 (stereo not drawn) [NIMODIPINE] | – | – | 90.4%
4 | – | O=c1[nH]nc2c3c(cccc13)N=C(c1ccccc1)N2 | 81.6% | 98.2% | 88.5%
